Experimental data: article PMC8584173, “The Cytotoxic Effect of Copper (II) Complexes with Halogenated 1,3-Disubstituted Arylthioureas on Cancer and Bacterial Cells” (International Journal of Molecular Sciences, 2021)

How the values were obtained:
Assay type in all cases: cell-based, human
PC3 cells [1] = assay: Annexin V-FITC/PI flow cytometry, PC3; details: PC3, IC50 dose, 72 h
Method: The cells were cultured and harvested under the conditions described in the cell culture section. […] The effect of these compounds on the process of early and late apoptosis and necrosis was determined, as described previously, by dual staining with annexin V-FITC and propidium iodide according to manufacturer’s protocol (Becton Dickinson). The cells that were annexin V-FITC positive and PI-negative were identified as early apoptotic and annexin V-FITC and PI-positive as late apoptotic or necrotic.

SW480 cells = assay: LDH release assay, SW480; details: 72 h
Method: (§1) The presence of lactate dehydrogenase (LDH) in culture medium indicates a disturbance of the integrity of the cellular membrane. The LDH activity was performed after 72 h incubation of cells (1 × 10^4 cells per well) in 96-well plates with selected compounds according to manufacturer’s protocol (Roche Diagnostics, Germany), as was described by Chrzanowska et al.. Compound mediated cytotoxicity was determined using equation: ((A test sample−A low control)/ (A high control−A low control)) × 100% (A-absorbance), where “low control” means cells in medium with 2% FBS without tested compounds, and “high control” means cells incubated in medium with 2% FBS and 1% Triton X-100 (100% LDH release). The cytotoxicity was expressed as percentage of LDH release as compared with the maximum release of LDH from Triton-X-100-treated cells.

PC3 cells [2] = assay: LDH release assay, PC3; details: 72 h
Method: as §1

SMILES | early apoptosis, % of cells (PC3 cells [1]) | LDH release (SW480 cells; SW480, 20 μM) | LDH release (SW480 cells; SW480, 40 μM) | LDH release (SW480 cells; SW480, 60 μM) | LDH release (PC3 cells [2]; PC3, 10 μM) | LDH release (PC3 cells [2]; PC3, 40 μM) | LDH release (PC3 cells [2]; PC3, 60 μM)
O=[N+]([O-])c1cc([N+]2=C(Nc3ccccc3Br)[S][Cu-2]23[S]C(Nc2ccccc2Br)=[N+]3c2ccc(Cl)c([N+](=O)[O-])c2)ccc1Cl [Compound 1, Copper (II) complex with 1-(2-bromophenyl)-3-(4-chloro-3-nitrophenyl)thiourea] | one third | – | – | – | – | – | –
O=[N+]([O-])c1cc([N+]2=C(Nc3ccc(Br)cc3)[S][Cu-2]23[S]C(Nc2ccc(Br)cc2)=[N+]3c2ccc(Cl)c([N+](=O)[O-])c2)ccc1Cl [Compound 3, Copper (II) complex with 1-(4-bromophenyl)-3-(4-chloro-3-nitrophenyl)thiourea] | 45.5% ± 3.5% | – | – | – | – | – | –
O=[N+]([O-])c1cc([N+]2=C(Nc3ccccc3F)[S][Cu-2]23[S]C(Nc2ccccc2F)=[N+]3c2ccc(Cl)c([N+](=O)[O-])c2)ccc1Cl [Compound 7, Copper (II) complex with 1-(2-fluorophenyl)-3-(4-chloro-3-nitrophenyl)thiourea] | one third | – | – | – | – | – | –
O=[N+]([O-])c1cc([N+]2=C(Nc3ccc(I)cc3)[S][Cu-2]23[S]C(Nc2ccc(I)cc2)=[N+]3c2ccc(Cl)c([N+](=O)[O-])c2)ccc1Cl [Compound 8, Copper (II) complex with 1-(4-iodophenyl)-3-(4-chloro-3-nitrophenyl)thiourea] | 45.7% ± 3.3% | 42% | 46.4% | 58% | 27.2% | 56.4% | 64%
